The results in this text go back to patent US10918645B2 (LIFEARC, priority 2016, dated 2021).

Holding throughout (type): biochemical
Details in all cases: 1 μM inhibitor concentration

One test has as its system Lck. The experiment in a line: Lck kinase selectivity assay. As to the method: LCK (5-20 mU diluted in 20 mM MOPS pH 7.5, 1 mM EDTA, 0.01% Brij35, 5% glycerol, 0.1% b-mercaptoethanol, 1 mg/ml BSA) is assayed against Cdc2 peptide ([…]) in a final volume of 25.5 μl containing 50 mM Tris pH 7.5, 0.1 mM EGTA, 0.1 mM Na3Vo4, Cdc2 peptide (0.25 mM), 10 mM magnesium acetate and 0.05 mM [33P-g-ATP](500-1000 cpm/pmole) and incubated for 15 min at room temperature Assays are stopped by addition of 5 μl of 0.5 M (3%) orthophosphoric acid and then harvested onto P81 Unifilter plates with a wash buffer of 50 mM orthophosphoric acid.

The next test has as its target PAK4 (Homo sapiens (Human), UniProt O96013). The experiment in a line: PAK4 kinase selectivity assay. As to the method:
PAK4 (5-20 mU diluted in 50 mM Tris pH 7.5, 0.1 mM EGTA, 0.1% b-mercaptoethanol, 1 mg/ml BSA) is assayed against a substrate peptide ([…]) in a final volume of 25.5 μl containing 50 mM Tris pH 7.5, 0.05% b-mercaptoethanol, 300 μM substrate peptide, 10 mM magnesium acetate and 0.005 mM [33P-g-ATP] (50-1000 cpm/pmole) and incubated for 30 min at room temperature. Assays are stopped by addition of 5 μl of 0.5 M (3%) orthophosphoric acid and then harvested onto P81 Unifilter plates with a wash buffer of 50 mM orthophosphoric acid.

Another test concerns the target MLK3 (Homo sapiens (Human), UniProt Q16584). The experiment in a line: MLK3 kinase selectivity assay. As to the method: MLK3 (5-20 mU diluted in 50 mM Tris pH 7.5, 0.1 mM EGTA, 0.1% 0-mercaptoethanol, 1 mg/ml BSA) is assayed against MBP in a final volume of 25.5 μl containing 50 mM Tris pH 7.5, 0.1 mM EGTA, 0.33 mg/ml MBP, 10 mM magnesium acetate and 0.02 mM [33P-γ-ATP] (50-1000 cpm/pmole) and incubated for 30 min at room temperature. Assays are stopped by addition of 5 μl of 0.5 M (3%) orthophosphoric acid and then harvested onto P81 Unifilter plates with a wash buffer of 50 mM orthophosphoric acid.

The target of the next test is IR (Homo sapiens (Human), UniProt P06213). The experiment in a line: IR kinase selectivity assay. As to the method: IR-HIS (5-20 mU diluted in 50 mM Tris pH 7.5, 0.1 mM EGTA, 1 mg/ml BSA) is assayed against a substrate peptide ([…]) in a final volume of 25.5 μl containing 50 mM Tris pH 7.5, 300 µM substrate peptide, 10 mM magnesium acetate and 0.02 mM [33P-g-ATP] (50-1000 cpm/pmole) and incubated for 30 min at room temperature. Assays are stopped by addition of 5 μl of 0.5 M (3%) orthophosphoric acid and then harvested onto P81 Unifilter plates with a wash buffer of 50 mM orthophosphoric acid.
IR, sequence (P06213 28-1382): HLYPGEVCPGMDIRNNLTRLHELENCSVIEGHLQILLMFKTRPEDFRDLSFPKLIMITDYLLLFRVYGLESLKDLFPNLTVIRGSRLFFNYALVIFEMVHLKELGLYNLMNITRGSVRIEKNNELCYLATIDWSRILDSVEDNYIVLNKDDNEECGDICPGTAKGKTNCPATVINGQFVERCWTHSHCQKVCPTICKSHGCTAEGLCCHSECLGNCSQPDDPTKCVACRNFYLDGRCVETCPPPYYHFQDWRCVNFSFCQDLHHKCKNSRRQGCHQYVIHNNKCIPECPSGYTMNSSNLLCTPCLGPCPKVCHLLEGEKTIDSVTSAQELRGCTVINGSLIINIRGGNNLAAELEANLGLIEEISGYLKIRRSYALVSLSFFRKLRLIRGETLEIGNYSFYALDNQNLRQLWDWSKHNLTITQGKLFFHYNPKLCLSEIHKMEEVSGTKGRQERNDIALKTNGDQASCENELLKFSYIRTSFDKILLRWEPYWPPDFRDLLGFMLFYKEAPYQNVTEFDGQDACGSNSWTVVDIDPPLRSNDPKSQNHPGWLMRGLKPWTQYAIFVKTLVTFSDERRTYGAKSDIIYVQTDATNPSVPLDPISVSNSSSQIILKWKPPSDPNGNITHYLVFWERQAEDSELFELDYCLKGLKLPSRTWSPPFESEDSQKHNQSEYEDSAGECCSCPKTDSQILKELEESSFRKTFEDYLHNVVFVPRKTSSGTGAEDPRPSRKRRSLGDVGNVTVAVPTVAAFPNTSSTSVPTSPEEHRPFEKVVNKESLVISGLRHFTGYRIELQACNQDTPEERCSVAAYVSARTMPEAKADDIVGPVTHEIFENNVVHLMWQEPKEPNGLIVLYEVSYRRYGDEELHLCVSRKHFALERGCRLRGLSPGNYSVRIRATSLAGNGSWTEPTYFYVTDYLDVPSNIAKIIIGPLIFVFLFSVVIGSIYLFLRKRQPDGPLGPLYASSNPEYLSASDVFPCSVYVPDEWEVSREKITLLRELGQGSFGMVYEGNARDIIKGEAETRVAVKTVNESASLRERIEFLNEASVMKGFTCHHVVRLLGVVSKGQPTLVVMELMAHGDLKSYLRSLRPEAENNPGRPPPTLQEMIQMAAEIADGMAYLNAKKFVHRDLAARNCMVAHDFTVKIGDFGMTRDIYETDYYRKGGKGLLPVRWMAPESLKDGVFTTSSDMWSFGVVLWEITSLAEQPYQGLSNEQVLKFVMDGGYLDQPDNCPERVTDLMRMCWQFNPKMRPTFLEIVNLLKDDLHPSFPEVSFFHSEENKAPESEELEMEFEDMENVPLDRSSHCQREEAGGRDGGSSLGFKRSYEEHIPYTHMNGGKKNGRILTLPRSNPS

The target of a further test is MARK3 (Homo sapiens (Human), UniProt P27448). The experiment in a line: MARK3 kinase selectivity assay. As to the method: MARK3 (5-20 mU diluted in 50 mM Tris pH 7.5, 0.1 mM EGTA, 0.1% b-mercaptoethanol, 1 mg/ml BSA) is assayed against CHKtide substrate ([…]) in a final volume of 25.5 μl containing 50 mM Tris pH 7.5, 0.05% b-mercaptoethanol, 300 μM substrate peptide, 10 mM magnesium acetate and 0.005 mM [33P-g-ATP](50-1000 cpm/pmole) and incubated for 30 min at room temperature. Assays are stopped by addition of 5 μl of 0.5 M (3%) orthophosphoric acid and then harvested onto P81 Unifilter plates with a wash buffer of 50 mM orthophosphoric acid.
MARK3, sequence (P27448 whole entry, species assumed): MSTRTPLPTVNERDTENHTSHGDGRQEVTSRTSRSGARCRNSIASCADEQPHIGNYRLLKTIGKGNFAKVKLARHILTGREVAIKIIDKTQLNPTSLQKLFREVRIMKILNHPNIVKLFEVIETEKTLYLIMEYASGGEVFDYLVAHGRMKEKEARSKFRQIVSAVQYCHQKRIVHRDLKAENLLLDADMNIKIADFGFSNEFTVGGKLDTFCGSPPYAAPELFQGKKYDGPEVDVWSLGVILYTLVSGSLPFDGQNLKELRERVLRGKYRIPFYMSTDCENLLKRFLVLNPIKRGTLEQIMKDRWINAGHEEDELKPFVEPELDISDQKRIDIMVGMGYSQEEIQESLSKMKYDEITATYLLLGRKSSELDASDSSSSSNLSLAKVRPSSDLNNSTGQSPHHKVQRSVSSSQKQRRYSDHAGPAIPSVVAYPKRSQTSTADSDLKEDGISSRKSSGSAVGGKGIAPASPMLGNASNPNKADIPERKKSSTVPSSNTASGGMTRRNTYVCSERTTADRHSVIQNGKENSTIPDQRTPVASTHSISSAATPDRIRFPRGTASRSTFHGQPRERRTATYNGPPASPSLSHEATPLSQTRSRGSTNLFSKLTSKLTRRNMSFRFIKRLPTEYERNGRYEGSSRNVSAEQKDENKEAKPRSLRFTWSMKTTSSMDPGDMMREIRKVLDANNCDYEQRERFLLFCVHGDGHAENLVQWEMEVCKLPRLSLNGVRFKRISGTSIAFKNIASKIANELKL

Another test deals with PHK. The experiment in a line: PHK kinase selectivity assay. As to the method: […] (5-20 mU diluted in 50 mM Na-b-glycerophosphate pH 7.0, 0.1% b-mercaptoethanol) is assayed against phosphorylase b peptide ([…]) in a final volume of 25.5 μl containing 50 mM Tris pH 8.6, 50 mM Na-b-glycerophosphate, 0.04 mM CaCl2, phosphorylase b peptide (0.196 mM), 10 mM magnesium acetate, 0.02 mM [33P-g-ATP] (500-1000 cpm/pmole) then incubated for 15 min at room temperature. Assays are stopped by addition of 5 μl of 0.5 M (3%) orthophosphoric acid and then harvested onto P81 Unifilter plates with a wash buffer of 50 mM orthophosphoric acid.

The next test has as its target CDK2-CyclinA (Homo sapiens (Human), UniProt P24941). The experiment in a line: CDK2-CyclinA kinase selectivity assay. The method, then:
CDK2/cyclin A (5-20 mU diluted in 50 mM Hepes pH 7.5, 1 mM DTT, 0.02% Brij35, 100 mM NaCl) is assayed against Histone H1 in a final volume of 25.5 μl containing 50 mM Hepes pH7.5, 1 mM DTT, 0.02% Brij35, 100 mM NaCl, Histone H1 (1 mg/ml), 10 mM magnesium acetate and 0.02 mM [33P-g-ATP](500-1000 cpm/pmole) and incubated for 30 min at room temperature. Assays are stopped by addition of 5 μl of 0.5 M (3%) orthophosphoric acid and then harvested onto P81 Unifilter plates with a wash buffer of 50 mM orthophosphoric acid.

Another test has as its target IKKb (Homo sapiens (Human), UniProt O14920). The experiment in a line: IKKb kinase selectivity assay. The method, then:
5-20 mU of IKKb (diluted in 50 mM Tris (pH 7.5), 0.1 mM EGTA, 1 mg/ml BSA, 0.1%, b-Mercaptoethanol) is assayed against substrate peptide ([…]) in a final volume of […] containing 50 mM Tris (pH 7.5), 0.1 mM EGTA, 0.1%, b-Mercaptoethanol, 300 μM substrate peptide, 10 mM magnesium acetate and 0.005 mM [33P-g-ATP](500-1000 cpm/pmole) and incubated for 30 mins at room temperature. Assays are stopped by addition of 5 μl of 0.5M (3%) orthophosphoric acid. Assays are harvested onto P81 Unifilter plates using a wash buffer of 50 mM orthophosphoric acid.

The target in the next test is TTK (Homo sapiens (Human), UniProt P33981). The experiment in a line: TTK kinase selectivity assay. The method, then:
TTK (5-20 mU diluted in 50 mM Tris pH 7.5, 0.1 mM EGTA, 0.1% 0-mercaptoethanol, 1 mg/ml BSA) is assayed against […] in a final volume of […] containing 50 mM Tris pH 7.5, 0.1 mM EGTA, 0.3 mM […], 10 mM magnesium acetate and 0.02 mM [33P-γ-ATP] (50-1000 cpm/pmole) and incubated for 30 min at room temperature. Assays are stopped by addition of 5 μl of 0.5 M (3%) orthophosphoric acid and then harvested onto P81 Unifilter plates with a wash buffer of 50 mM orthophosphoric acid.

IKKb, sequence (O14920 whole entry, species assumed): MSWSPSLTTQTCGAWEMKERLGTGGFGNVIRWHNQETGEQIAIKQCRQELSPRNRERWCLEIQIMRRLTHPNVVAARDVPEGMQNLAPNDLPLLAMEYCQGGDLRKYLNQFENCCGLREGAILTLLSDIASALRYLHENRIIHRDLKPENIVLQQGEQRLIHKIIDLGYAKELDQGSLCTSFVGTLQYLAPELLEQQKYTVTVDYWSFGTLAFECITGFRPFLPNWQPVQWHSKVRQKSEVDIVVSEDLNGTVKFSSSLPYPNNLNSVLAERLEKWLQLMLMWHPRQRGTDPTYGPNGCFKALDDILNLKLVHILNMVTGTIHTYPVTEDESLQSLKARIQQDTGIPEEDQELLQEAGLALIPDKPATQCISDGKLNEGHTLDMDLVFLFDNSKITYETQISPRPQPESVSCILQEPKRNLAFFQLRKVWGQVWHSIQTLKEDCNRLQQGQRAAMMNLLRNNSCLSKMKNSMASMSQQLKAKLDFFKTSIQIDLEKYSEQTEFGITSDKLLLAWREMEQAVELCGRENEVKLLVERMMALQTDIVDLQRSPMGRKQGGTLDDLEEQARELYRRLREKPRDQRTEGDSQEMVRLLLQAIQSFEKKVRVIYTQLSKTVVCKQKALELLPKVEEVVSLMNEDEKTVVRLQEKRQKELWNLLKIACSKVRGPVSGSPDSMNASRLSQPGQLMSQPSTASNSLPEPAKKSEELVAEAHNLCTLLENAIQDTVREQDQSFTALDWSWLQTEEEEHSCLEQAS
PAK4, sequence (O96013 whole entry, species assumed): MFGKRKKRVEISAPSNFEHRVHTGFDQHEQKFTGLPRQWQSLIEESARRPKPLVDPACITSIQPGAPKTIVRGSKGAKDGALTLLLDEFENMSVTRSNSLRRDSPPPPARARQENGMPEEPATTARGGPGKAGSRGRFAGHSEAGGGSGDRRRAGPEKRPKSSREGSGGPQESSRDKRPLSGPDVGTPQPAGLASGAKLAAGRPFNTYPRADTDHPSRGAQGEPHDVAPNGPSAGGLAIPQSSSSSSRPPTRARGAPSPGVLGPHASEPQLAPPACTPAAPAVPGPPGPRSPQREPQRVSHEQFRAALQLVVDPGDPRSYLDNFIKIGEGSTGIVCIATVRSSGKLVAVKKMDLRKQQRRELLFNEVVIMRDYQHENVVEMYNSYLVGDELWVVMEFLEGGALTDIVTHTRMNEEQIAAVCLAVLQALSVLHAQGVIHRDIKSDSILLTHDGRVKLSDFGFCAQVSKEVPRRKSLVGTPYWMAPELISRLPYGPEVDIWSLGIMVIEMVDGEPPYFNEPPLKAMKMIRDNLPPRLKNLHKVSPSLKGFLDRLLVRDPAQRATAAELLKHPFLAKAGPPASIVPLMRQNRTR
TTK, sequence (P33981 whole entry, species assumed): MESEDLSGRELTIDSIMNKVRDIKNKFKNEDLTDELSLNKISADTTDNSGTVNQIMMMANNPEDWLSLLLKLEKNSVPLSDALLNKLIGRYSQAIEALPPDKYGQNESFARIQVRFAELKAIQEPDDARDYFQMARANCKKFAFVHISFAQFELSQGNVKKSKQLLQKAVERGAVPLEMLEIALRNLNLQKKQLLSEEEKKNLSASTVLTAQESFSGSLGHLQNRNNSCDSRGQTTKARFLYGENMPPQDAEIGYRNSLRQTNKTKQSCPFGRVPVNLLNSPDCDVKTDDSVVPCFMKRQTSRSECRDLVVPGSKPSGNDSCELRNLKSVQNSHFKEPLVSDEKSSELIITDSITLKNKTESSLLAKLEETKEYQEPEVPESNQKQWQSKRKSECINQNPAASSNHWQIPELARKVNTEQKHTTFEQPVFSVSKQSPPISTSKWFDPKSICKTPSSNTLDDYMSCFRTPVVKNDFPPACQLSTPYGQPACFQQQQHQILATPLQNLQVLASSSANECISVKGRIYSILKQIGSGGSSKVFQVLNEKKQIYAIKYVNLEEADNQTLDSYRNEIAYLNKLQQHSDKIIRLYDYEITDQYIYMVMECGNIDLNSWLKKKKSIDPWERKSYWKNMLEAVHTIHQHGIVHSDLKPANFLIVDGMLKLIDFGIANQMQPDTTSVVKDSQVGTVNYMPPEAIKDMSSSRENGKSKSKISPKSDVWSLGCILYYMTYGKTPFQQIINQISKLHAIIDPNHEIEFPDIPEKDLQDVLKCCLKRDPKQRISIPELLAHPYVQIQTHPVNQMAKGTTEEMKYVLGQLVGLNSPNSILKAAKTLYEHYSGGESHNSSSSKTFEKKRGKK

Take `c1cc2[nH]nc3c2c(n1)N(C1CCC1)CCC3` [Example 22, 6-cyclobutyl-6,7,8,9-tetrahydro-2H-1,2,5,6-tetraazabenzo[cd]azulene]: the “percentage inhibition of Lck” value in the test with Lck worked out at 0 percentage. On PAK4, the “percentage inhibition of PAK4” value is on record as 6 percentage. In addition, the “percentage inhibition of MLK3” value at MLK3 was 7 percentage. Further, at IR, the “percentage inhibition of IR” value stood at 27 percentage. Besides, the “percentage inhibition of MARK3” value on MARK3 was found to be 1 percentage. In addition, the “percentage inhibition of PHK” value with PHK was 41 percentage. For the same compound, the “percentage inhibition of CDK2-CyclinA” value on CDK2-CyclinA came to 16 percentage. In addition, the “percentage inhibition of IKKb” value on IKKb is reported as 2 percentage. The “percentage inhibition of TTK” value on TTK was 0 percentage.

For the compound `c1cc2[nH]nc3c2c(n1)N(C1CCCC1)CCC3` [Example 23, 6-cyclopentyl-6,7,8,9-tetrahydro-2H-1,2,5,6-tetraazabenzo[cd]azulene], at PAK4, the “percentage inhibition of PAK4” value stood at 0 percentage. For the same compound, on MLK3, the “percentage inhibition of MLK3” value is 4 percentage. Also, at IR, the “percentage inhibition of IR” value worked out at 1 percentage. In addition, the “percentage inhibition of MARK3” value on MARK3 was 0 percentage. Besides, at CDK2-CyclinA, the “percentage inhibition of CDK2-CyclinA” value is 0 percentage. Also, the “percentage inhibition of IKKb” value on IKKb amounted to 0 percentage. Besides, the “percentage inhibition of TTK” value on TTK came to 0 percentage.

On to `c1cc2[nH]nc3c2c(n1)N(C1CCOCC1)CCC3` [Example 29, 6-(tetrahydro-2H-pyran-4-yl)-6,7,8,9-tetrahydro-2H-1,2,5,6-tetraazabenzo[cd]azulene], for which, in the test with Lck, the “percentage inhibition of Lck” value is listed as 0 percentage. The “percentage inhibition of PAK4” value at PAK4 came to 7 percentage. The “percentage inhibition of MLK3” value at MLK3 amounted to 8 percentage. The “percentage inhibition of IR” value at IR is given as 2 percentage. Besides, the “percentage inhibition of MARK3” value at MARK3 is given as 13 percentage. The “percentage inhibition of PHK” value in the test with PHK came to 35 percentage. Moreover, the “percentage inhibition of CDK2-CyclinA” value at CDK2-CyclinA is 30 percentage. Besides, at IKKb, the “percentage inhibition of IKKb” value was 0 percentage. For the same compound, the “percentage inhibition of TTK” value on TTK was determined as 2 percentage.

In the case of `CN1CCC(N2Cc3ccccc3-c3n[nH]c4ccnc2c34)CC1` [Example 55], the “percentage inhibition of Lck” value in the test on Lck is 6 percentage. For the same compound, the “percentage inhibition of PAK4” value on PAK4 is reported as 20 percentage. Also, on MLK3, the “percentage inhibition of MLK3” value is 6 percentage. Also, the “percentage inhibition of IR” value at IR came to 5 percentage. The “percentage inhibition of MARK3” value on MARK3 is on record as 47 percentage. Also, in the test with PHK, the “percentage inhibition of PHK” value is reported as 73 percentage. Further, the “percentage inhibition of CDK2-CyclinA” value on CDK2-CyclinA amounted to 10 percentage. In addition, at IKKb, the “percentage inhibition of IKKb” value worked out at 6 percentage. Besides, the “percentage inhibition of TTK” value at TTK came to 35 percentage.

With `CC(C)n1ncc2c1CN(C1CCN(C)CC1)c1nccc3[nH]nc-2c13` [Example 68], in the test on Lck, the “percentage inhibition of Lck” value worked out at 0 percentage. The “percentage inhibition of PAK4” value on PAK4 amounted to 25 percentage. In addition, the “percentage inhibition of MLK3” value at MLK3 was 4 percentage. In addition, at IR, the “percentage inhibition of IR” value was determined as 0 percentage. The “percentage inhibition of MARK3” value at MARK3 turned out to be 43 percentage. In addition, the “percentage inhibition of PHK” value with PHK was determined as 43 percentage. For the same compound, at CDK2-CyclinA, the “percentage inhibition of CDK2-CyclinA” value is given as 0 percentage. In addition, the “percentage inhibition of IKKb” value on IKKb was determined as 4 percentage. Besides, the “percentage inhibition of TTK” value at TTK stood at 2 percentage.
